Test results as given in patent US6740335B1, “Liposomal camptothecin formulations” (priority 1997, dated 2004).

Columns and labels:
A673 (Rhabdomyosarcoma) = assay: 3H-thymidine incorporation cytotoxicity assay, A673; type: cell-based, human; conditions: A673, 24 h
Experimental: (§1) In vitro efficacy screening has been performed using GI147211 and liposomal formulations of GI147211. […] Standard tumor cell-based cytototoxicity assays assessing ^3H-thymidine incorporation were performed.
(§2) Tumor cells were seeded into 96-well tissue culture plates (1×10^4 cells/well)≡4 h prior to experimentation. […] Positive and negative (Tris treated) control groups were included on each assay plate. Tumor cells were then labeled with 0.25 μCi of [methyl-^3H] thymidine and incubated for 42 h under tissue culture conditions (37° C., 5% CO2, 100% relative humidity), except for C6, U251, A673 and B16-F1 cells which were incubated for 24 h. Cells were then lysed, harvested onto glass-fiber filters and unincorporated [methyl-^3H] thymidine removed by filter washing. Filters were processed for scintillation counting and cpm-^3H/well determined. […] Data are presented from multiple sets of experimentation, involving multiple liposomal formulations of GI147211.

[1] = test system: B16-F1 (Melanoma, murine); assay: 3H-thymidine incorporation cytotoxicity assay, B16-F1; type: cell-based; conditions: B16-F1, 24 h
Experimental: as §1, §2

BT-20 (Breast) = assay: 3H-thymidine incorporation cytotoxicity assay, BT-20; type: cell-based, human; conditions: BT-20, 42 h
Experimental: as §1, §2

[2] = test system: DU-145 (prostate carcinoma); assay: 3H-thymidine incorporation cytotoxicity assay, DU-145; type: cell-based, human; conditions: DU-145, 42 h
Experimental: as §1, §2

ES-2 (ovarian carcinoma) = assay: 3H-thymidine incorporation cytotoxicity assay, ES-2; type: cell-based, human; conditions: ES-2, 42 h
Experimental: as §1, §2

[3] = test system: H460 (Lung, Non-Small Cell); assay: 3H-thymidine incorporation cytotoxicity assay, H460; type: cell-based, human; conditions: H460, 42 h
Experimental: as §1, §2

HT-29 (Colon) = assay: 3H-thymidine incorporation cytotoxicity assay, HT-29; type: cell-based, human; conditions: HT-29, 42 h
Experimental: as §1, §2

[4] = test system: KB (oralpharyngial carcinoma); assay: 3H-thymidine incorporation cytotoxicity assay, KB; type: cell-based, human; conditions: 42 h
Experimental: as §1, §2

[5] = test system: KBV (oralpharyngial carcinoma, vincristine resistant phenotype); assay: 3H-thymidine incorporation cytotoxicity assay, KBV; type: cell-based, human; conditions: 42 h
Experimental: as §1, §2

LOX (melanoma) = assay: 3H-thymidine incorporation cytotoxicity assay, LOX; type: cell-based, human; conditions: 42 h
Experimental: as §1, §2

LS-513 (Cecum) = assay: 3H-thymidine incorporation cytotoxicity assay, LS-513; type: cell-based, human; conditions: LS-513, 42 h
Experimental: as §1, §2

MCF-7 (Breast) = assay: 3H-thymidine incorporation cytotoxicity assay, MCF-7; type: cell-based, human; conditions: MCF-7, 42 h
Experimental: as §1, §2

MDA-MB-468 (Breast) = assay: 3H-thymidine incorporation cytotoxicity assay, MDA-MB-468; type: cell-based, human; conditions: MDA-MB-468, 42 h
Experimental: as §1, §2

[6] = test system: SKOV-3 (ovarian carcinoma); assay: 3H-thymidine incorporation cytotoxicity assay, SKOV-3; type: cell-based, human; conditions: SKOV-3, 42 h
Experimental: as §1, §2

U251 (Glioblastoma) = assay: 3H-thymidine incorporation cytotoxicity assay, U251; type: cell-based, human; conditions: U251, 24 h
Experimental: as §1, §2

U87-MG (Astrocytoma) = assay: 3H-thymidine incorporation cytotoxicity assay, U87-MG; type: cell-based, human; conditions: 42 h
Experimental: as §1, §2

U937 (Lymphoma) = assay: 3H-thymidine incorporation cytotoxicity assay, U937; type: cell-based, human; conditions: U937, 42 h
Experimental: as §1, §2

ES2 Tumor Xenograft = assay: Repeat dose efficacy at equal toxic doses, ES2 xenograft; conditions: ES2, 16 mg/kg, days 1, 8 and 15
Experimental: In all the studies performed, subcutaneous tumors implanted on the anterior flank of nude mice were allowed to grow to an established size of 200+/−50 mm^3 prior to dosing drugs.
Drugs were dosed on days 1,8 and 15.

## CC[C@@]1(O)C(=O)OCc2c1cc1n(c2=O)Cc2cc3c(CN(C)C)c(O)ccc3nc2-1 [Topotecan]
A673 (Rhabdomyosarcoma)
  Median IC50: 0.00604 µg/mL
[1]
  Median IC50: 0.393 µg/mL
BT-20 (Breast)
  Median IC50: 0.0035 µg/mL
[2]
  Median IC50: 0.0135 µg/mL
ES-2 (ovarian carcinoma)
  Median IC50: 0.00389 µg/mL
[3]
  Median IC50: 0.0209 µg/mL
HT-29 (Colon)
  Median IC50: 0.00415 µg/mL
[4]
  Median IC50: 0.0336 µg/mL
[5]
  Median IC50: 0.611 µg/mL
LOX (melanoma)
  Median IC50: 0.00492 µg/mL
LS-513 (Cecum)
  Median IC50: 0.016 µg/mL
MCF-7 (Breast)
  Median IC50: 0.23 µg/mL
MDA-MB-468 (Breast)
  Median IC50: 0.0473 µg/mL
[6]
  Median IC50: 0.00518 µg/mL
U251 (Glioblastoma)
  Median IC50: 0.0131 µg/mL
U87-MG (Astrocytoma)
  Median IC50: 0.0216 µg/mL
U937 (Lymphoma)
  Median IC50: 0.00903 µg/mL
ES2 Tumor Xenograft
  Cures: 0
  Log Cell Kill: 0.58
  Maximum Body Weight loss: 16%
  T − C (to reach 400% tumor volume increase): 7.4 days
  Toxic Deaths: 3
